# Data reported in patent publication US11753363B2, “13-oxidized ingenol derivative and use thereof” (Tianjin Pharmaceutical Da Ren Tang Group Corp., Ltd. …, priority 2017, dated 2023).
# Key:
# [1] = system: A549 (human lung cancer cells); experiment: Inhibition of proliferation of tumor cell lines (MTT), A549; format: cell-based; settings: Homo sapiens, A549, 72 h, read-out: IC50 value of compound for inhibition of proliferation of tumor cell lines, A549
# Procedure, shortened: (§1)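 Log-phase cells, RPMI 1640 + 10% calf serum, seeded ~1×10^5/mL, 24 h attachment. Compound dilutions, quadruplicate wells, 72 h, 37° C/5% CO2. MTT 4 h → DMSO → A570. IC50 via log-dose/IR regression.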
# [2] = system: BGC-823 (human gastric cancer cells); experiment: Inhibition of proliferation of tumor cell lines (MTT), BGC-823; format: cell-based; settings: Homo sapiens, BGC-823, 72 h, read-out: IC50 value of compound for inhibition of proliferation of tumor cell lines, BGC-823
# Procedure, shortened: as §1
# [3] = system: LOVO (human colon cancer cells); experiment: Inhibition of proliferation of tumor cell lines (MTT), LOVO; format: cell-based; settings: Homo sapiens, 72 h, read-out: IC50 value of compound for inhibition of proliferation of tumor cell lines, LOVO
# Procedure, shortened: as §1
# [4] = system: K562 (human leukemia cells); experiment: Inhibition of proliferation of tumor cell lines (MTT), K562; format: cell-based; settings: Homo sapiens, K562, 72 h, read-out: IC50 value of compound for inhibition of proliferation of tumor cell lines, K562
# Procedure, shortened: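 Cells in RPMI 1640 with 10% calf serum; adherent lines seeded at about 1×10^5/mL and attached 24 h, K562 at 2×10^5/mL. Compounds added in quadruplicate, 72 h at 37 °C, 5% CO2; MTT 4 h, DMSO-dissolved formazan read at 570 nm. IC50 from log-concentration versus inhibition-rate regression.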
# [5] = system: SMMC-7721 (human liver cancer cells); experiment: Inhibition of proliferation of tumor cell lines (MTT), SMMC-7721; format: cell-based; settings: Homo sapiens, SMMC-7721, 72 h, read-out: IC50 value of compound for inhibition of proliferation of tumor cell lines, SMMC-7721
# Procedure, shortened: as §1
# [6] = system: MCF-7 (human breast cancer cells); experiment: Inhibition of proliferation of tumor cell lines (MTT), MCF-7; format: cell-based; settings: Homo sapiens, MCF7, MCF-7, 72 h, read-out: IC50 value of compound for inhibition of proliferation of tumor cell lines, MCF-7
# Procedure, shortened: as §1
# [7] = system: HeLa (human cervical cancer cells); experiment: Inhibition of proliferation of tumor cell lines (MTT), HeLa; format: cell-based; settings: Homo sapiens, 72 h, read-out: IC50 value of compound for inhibition of proliferation of tumor cell lines, HeLA
# Procedure, shortened: as §1
# [8] = system: mouse B16-F10 melanoma cells; experiment: Inhibition of proliferation of tumor cell lines (MTT), B16-F10; format: cell-based; settings: Mus musculus, B16-F10, 72 h, read-out: IC50 value of compound for inhibition of proliferation of tumor cell lines, B16-F10
# Protocol: In this example, the inhibitory activity of compounds of the present invention against proliferation of seven human tumor cell lines and mouse B16-F10 melanoma cells was tested in vitro, and the IC50 value (50% inhibitory concentration) of compounds against each tumor cell line was calculated.
# IC50 values of the compounds for A549, BGC-823, LOVO, MCF-7, SMMC-7721, HeLa, and B16-F10 cells were tested. The above cells were routinely cultured in 1640 nutrient solution containing 10% calf serum, with passage for 1 time every 2 days, and the cells in logarithmic growth phase were taken for experiments. After the A549, BGC-823, LOVO, MCF-7, SMMC-7721, HeLa and B16-F10 cells in logarithmic growth phase were subjected to 0.25% trypsin digestion, they were blown into a single cell suspension, and then the cell concentration was adjusted to about 1×10^5·mL^−1 using RPMI 1640 solution containing 10% calf serum. The cells were seeded in a 96-well culture plate at 100 μL per well, and cultured for 24 hours until the cells were attached. K562 cells were taken and centrifuged and diluted into 2×10^5·mL^−1 single cell suspension with RPMI 1640 solution containing 10% calf serum, and inoculated into a 96-well culture plate at 100 μL per well.
# 100 μL of sample solution with different concentrations to be tested were added to the above 96-well plate, each concentration was added to 4 wells in parallel, and the cell control group was added with an equal volume of RPMI 1640 medium containing 10% calf serum to make a reaction volume of 200 μL. After incubating in an incubator at 37° C., 5% CO2 for 72 h, 10 μL of 5 mg·mL^−1 MTT solution was added to each well, and incubated at 37° C. for 4 h. The supernatant was carefully aspirated, 180 μL of DMSO was added to each well followed by shaking, and the absorbance (OD) value was measured at 570 nm on the microplate reader. The inhibition rate was calculated, and regression equation was established with the logarithmic value of the sample concentration and the inhibition rate (IR) to find the IC50 value of the compound against the cells to be tested. IR (%)=(1−OD value of the experimental group/OD value of the cell control group)×100%
# [9] = system: neutrophilic granulocytes; experiment: Neutrophil oxidative burst (luminol chemiluminescence); format: cell-based; settings: Neutrophil, rat neutrophils, (Csample−Ccontrol)/Ccontrol×100%, read-out: Efficiency of compounds in stimulating neutrophil oxidative burst; for activation at 3 µg/mL: 3 μg/mL
# Procedure, shortened: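 Rat neutrophils isolated from abdominal aorta blood, resuspended in Hanks at 1×10^5 cells/well with 1 mM luminol stock added. Oxidative burst read by chemiluminescence after sample addition; efficiency (%) = (Csample−Ccontrol)/Ccontrol×100%.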
# [10] = system: release of IL-8 by human keratinocytes (HaCaT); experiment: Release of IL-8 by human keratinocytes (HaCaT), IL-8 Elisa; format: cell-based; settings: Homo sapiens, HaCaT, 24 h, (Csample−Ccontrol)/Ccontrol×100%, read-out: Efficiency of compound in stimulating the release of IL-8 by HaCaT cells; for activation at 0.1 µg/mL: 0.1 μg/mL
# Protocol: This Example investigated the effect of compound on release of IL-8 by human keratinocytes (HaCaT) and calculated the efficiency of each compound in stimulating the release of IL-8 by human keratinocytes (HaCaT).
# Hacat cells were cultured in MEM+10% FBS under the conditions of 37° C., 5% CO2, and when the cells reached 80-95% fusion, they were inoculated into a 96-well culture plate (1×10^4 cells/well) at 100 μL/well, and incubated for 18-24 h. The supernatant was discarded and the cells were incubated for 3-6 h in 1% FBS medium. Different concentrations of the sample solution of compound to be tested were added to each well, and the cell control group was added with an equal volume of 1% FBS medium at 10 μL/well, and incubated for 24 h. The supernatant was taken and tested according to the operation sequence of the IL-8 Elisa kit. Calculation formula of Efficiency: Efficiency (%)=(Csample−Ccontrol)/Ccontrol×100%
# B16-F0 mouse melanoma = experiment: Antitumor activity in B16-F0 mouse melanoma model; format: in vivo; settings: female C57BL/6J mice, intradermal B16 tumor, skin administration once per day for 3 days, 20 μL/mouse, tumor weight on day 19
# Protocol: This Example investigated the antitumor activity of compounds in B16-F0 mouse melanoma model.
# In vitro passage of B16-F0 tumor source was inoculated subcutaneously into female C57BL/6J mice, and passage was carried out after tumor formation. After passage, the subcutaneous tumor tissue of the tumor-bearing mice was taken and ground with 3 times amount of physiological saline to form a tumor cell suspension, and 0.2 mL/mouse of which was inoculated subcutaneously into the axilla of forelimb of mice, which were used as the tumor-source mice. Female C57BL/6J mice were taken and their hair in an area of 4 cm^2 on the neck and back was shaven. After anesthesia with diethyl ether, B16 tumor source was inoculated intradermally at 0.05 mL/mouse. After 3 days of inoculation, the skin was continuously administered for 3 days, once per day, 20 μL/mouse each time, and in the test, a solvent group as a negative control group was included. On the 19th day of the experiment, the experiment was terminated. After the mice were euthanized, the intradermally transplanted tumors were completely separated and excised, and the tumor was weighed to calculate the tumor inhibition rate. Calculation formula of tumor inhibition rate: tumor inhibition rate (%)=(Wmodel group−Wadministration group)/Wmodel group×100%
# The tumor growths of the experimental group and the solvent control group were compared to evaluate the antitumor activity of each compound, and the compound with P<0.05 was considered to be effective.
smiles,measurement,setting,value
"C/C=C(/C)C(=O)O[C@H]1C(C)=C[C@]23C(=O)[C@@H](C=C(CO)[C@@H](O)[C@]12O)[C@@H]1C(C)(C)[C@]1(OC(=O)CCCCCCCCCCC)C[C@H]3C [Compound 9, 3-O-angeloyl-13-O-dodecanoyl-ingenol]",IC50,[1],10.8 µg/mL
same,IC50,[2],0.85 µg/mL
same,IC50,[3],10.1 µg/mL
same,IC50,[4],1.87 µg/mL
same,IC50,[5],8.86 µg/mL
same,IC50,[6],10.1 µg/mL
same,IC50,[7],12.5 µg/mL
same,IC50,[8],10.4 µg/mL
same,activation at 3 µg/mL,[9],77%
same,activation at 1 µg/mL,[10]; 1 μg/mL,23.5%
same,Tumor-inhibition rate,B16-F0 mouse melanoma,71.8%
CCCCCCCCCCCC(=O)O[C@@]12C[C@@H](C)[C@]34C=C(C)[C@H](OC(=O)C(C)(C)C)[C@@]3(O)[C@H](O)C(CO)=C[C@H](C4=O)[C@@H]1C2(C)C [3-O-trimethylacetyl-13-O-dodecanoyl-ingenol],IC50,[1],17.5 µg/mL
same,IC50,[2],6.81 µg/mL
same,IC50,[3],9.68 µg/mL
same,IC50,[4],< 0.2 µg/mL
same,IC50,[5],15.1 µg/mL
same,IC50,[6],8.79 µg/mL
same,IC50,[7],14.2 µg/mL
same,IC50,[8],7.7 µg/mL
same,activation at 0.1 µg/mL,[9]; 0.1 μg/mL,205%
same,activation at 0.1 µg/mL,[10],83.7%
same,Tumor-inhibition rate,B16-F0 mouse melanoma,47.4%
"CCCCCCCCCCCC(=O)O[C@@]12C[C@@H](C)[C@]34C=C(C)[C@H](OC(=O)C(C)=C(C)C)[C@@]3(O)[C@H](O)C(CO)=C[C@H](C4=O)[C@@H]1C2(C)C [Compound 21, 3-O-(2,3-dimethylbutenoyl)-13-O-dodecanoyl-ingenol]",IC50,[1],11.8 µg/mL
same,IC50,[2],10.4 µg/mL
same,IC50,[3],12.4 µg/mL
same,IC50,[4],2.06 µg/mL
same,IC50,[5],12.8 µg/mL
same,IC50,[6],8.32 µg/mL
same,IC50,[7],15.3 µg/mL
same,IC50,[8],15.1 µg/mL
same,activation at 3 µg/mL,[9],34.8%
same,activation at 0.1 µg/mL,[10],127%
same,Tumor-inhibition rate,B16-F0 mouse melanoma,64.1%
